Measurements taken from ChEMBL document CHEMBL1201862, “PubChem BioAssay data set” (2004).
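Grown in 96-well plates, cells were treated for 48 hours with each compound at five concentrations. Insufficient inhibition: endpoint recorded as highest concentration tested. The concentration for 50% growth inhibition is given as GI50.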 Active and inactive are the calls of the source. No stated cut-off is given here; in the data, active = GI50 up to about 1.1 µM and inactive = higher.

Tests used:
Experiment in all cases: NCI-60 cell line screen, 48 h
[1] = test system: KM12
[2] = test system: HCT-116
[3] = test system: HCT-15
[4] = test system: SF-295
[5] = test system: UACC-257
[6] = test system: NCI-H460
[7] = test system: SF-268
[8] = test system: EKVX
[9] = test system: NCI-H23
[10] = test system: SN12C
[11] = test system: TK-10
[12] = test system: HCC 2998
[13] = test system: HOP-62
[14] = test system: RXF 393
[15] = test system: MOLT-4
[16] = test system: SW-620
[17] = test system: OVCAR-5
[18] = test system: SK-OV-3
[19] = test system: SNB-75

SMILES | GI50 [1] | GI50 [2] | GI50 [3] [µM] | GI50 [4] | GI50 [5] | GI50 [6] | GI50 [7] | GI50 [8] | GI50 [9] | GI50 [10] | GI50 [11] | GI50 [12] | GI50 [13] | GI50 [14] | GI50 [15] | GI50 [16] | GI50 [17] | GI50 [18] | GI50 [19]
CN(C)c1ccc(-c2cc(O)c3ccccc3n2)cc1 | > 100 µM (inactive) | > 100 µM (inactive) | > 100 | > 100 µM (inactive) | > 100 µM (inactive) | > 100 µM (inactive) | > 100 µM (inactive) | > 100 µM (inactive) | > 100 µM (inactive) | > 100 µM (inactive) | > 100 µM (inactive) | > 100 µM (inactive) | > 100 µM (inactive) | > 100 µM (inactive) | > 100 µM (inactive) | > 100 µM (inactive) |  |  | 
O=C(Nc1nc2c(ncn2C2OC(CO)C(O)C2O)c(=O)[nH]1)c1ccccc1 (centres undefined) | > 100 µM (inactive) | > 100 µM (inactive) | > 100 | > 100 µM (inactive) | > 100 µM (inactive) | > 100 µM (inactive) | > 100 µM (inactive) | > 100 µM (inactive) | > 100 µM (inactive) | > 100 µM (inactive) | > 100 µM (inactive) |  | > 100 µM (inactive) | 63 µM (inactive) |  | > 100 µM (inactive) | > 100 µM (inactive) | > 100 µM (inactive) | > 100 µM (inactive)
Cc1ccccc1C1=C(C(=O)Nc2ccc(Cl)c(Cl)c2)NC(=S)NC1N (centres undefined) | > 100 µM (inactive) | > 100 µM (inactive) | > 100 |  | > 100 µM (inactive) | > 100 µM (inactive) | > 100 µM (inactive) | > 100 µM (inactive) | > 100 µM (inactive) | > 100 µM (inactive) | > 100 µM (inactive) |  |  | > 100 µM (inactive) | > 100 µM (inactive) | > 100 µM (inactive) | 82.6 µM (inactive) | > 100 µM (inactive) | > 100 µM (inactive)
Cc1ccccc1C1=[N+]([O-])c2ccccc2C1=O | 13.2 µM (inactive) | 18.5 µM (inactive) | 14.4 | 23.7 µM (inactive) | 14.7 µM (inactive) | 19.7 µM (inactive) | 20.5 µM (inactive) | 21 µM (inactive) | 20.3 µM (inactive) | 17.7 µM (inactive) | 18.3 µM (inactive) |  | 23.1 µM (inactive) | 21.9 µM (inactive) | 19 µM (inactive) | 26.4 µM (inactive) | 27.6 µM (inactive) | > 100 µM (inactive) | 20.2 µM (inactive)
CC1=C(C(=O)NNS(=O)(=O)c2ccc(C)cc2)CC(C(=O)NNS(=O)(=O)c2ccc(C)cc2)=C(C)N1 | > 100 µM (inactive) | > 100 µM (inactive) | > 100 | > 100 µM (inactive) | > 100 µM (inactive) | > 100 µM (inactive) | > 100 µM (inactive) | > 100 µM (inactive) | > 100 µM (inactive) | > 100 µM (inactive) | 56.4 µM (inactive) | > 100 µM (inactive) | > 100 µM (inactive) | 92.7 µM (inactive) | 46.8 µM (inactive) | > 100 µM (inactive) | 70.1 µM (inactive) | > 100 µM (inactive) | 
Cc1ccc(NC(=O)C(=O)C2C(=O)N(c3ccccc3)N=C2N)cc1C (centres undefined) | > 100 µM (inactive) | > 100 µM (inactive) | > 100 | > 100 µM (inactive) | > 100 µM (inactive) |  | > 100 µM (inactive) | > 100 µM (inactive) | > 100 µM (inactive) | > 100 µM (inactive) | > 100 µM (inactive) | > 100 µM (inactive) | > 100 µM (inactive) |  | > 100 µM (inactive) | > 100 µM (inactive) | > 100 µM (inactive) | > 100 µM (inactive) | > 100 µM (inactive)
COc1ccc(C2C3=C(COC3=O)Oc3cc4c(cc32)OCO4)cc1 (centres undefined) |  | 13.2 µM (inactive) | 6.27 | 5.15 µM (inactive) | 39.3 µM (inactive) | 10.8 µM (inactive) |  | 50.5 µM (inactive) | 20.1 µM (inactive) | 27.9 µM (inactive) | 29.3 µM (inactive) |  | 8.39 µM (inactive) | 19.1 µM (inactive) | 6.71 µM (inactive) | 6.21 µM (inactive) |  | > 100 µM (inactive) | 8.3 µM (inactive)
Cc1oc2c(C)c(O)c3c(c2c1C1(C)OCCO1)C(=O)C=C(Cl)C3=O | > 100 µM (inactive) | > 100 µM (inactive) | > 100 | > 100 µM (inactive) | > 100 µM (inactive) | > 100 µM (inactive) | > 100 µM (inactive) | > 100 µM (inactive) | > 100 µM (inactive) | > 100 µM (inactive) | > 100 µM (inactive) |  | > 100 µM (inactive) | > 100 µM (inactive) | > 100 µM (inactive) | > 100 µM (inactive) | > 100 µM (inactive) |  | 
N#CC(C#N)=Cc1ccc(CP(=O)(O)O)cc1 | > 100 µM (inactive) | > 100 µM (inactive) | > 100 | > 100 µM (inactive) | > 100 µM (inactive) | > 100 µM (inactive) | > 100 µM (inactive) | > 100 µM (inactive) | > 100 µM (inactive) | > 100 µM (inactive) | > 100 µM (inactive) | > 100 µM (inactive) | > 100 µM (inactive) |  | > 100 µM (inactive) | > 100 µM (inactive) | > 100 µM (inactive) | > 100 µM (inactive) | 
Cc1cc(N(CCC#N)CCC#N)ccc1/N=N/c1cccc(Cl)c1 | > 100 µM (inactive) | > 100 µM (inactive) |  | > 100 µM (inactive) | > 100 µM (inactive) | 5.75 µM (inactive) |  | > 100 µM (inactive) | 80.7 µM (inactive) | > 100 µM (inactive) | > 100 µM (inactive) |  | 86.5 µM (inactive) | 75 µM (inactive) |  | > 100 µM (inactive) | > 100 µM (inactive) | > 100 µM (inactive) | 
O=CN/C=C\c1cc(O)ccc1O | > 22.5 µM (inactive) | 10.6 µM (inactive) | 9.31 | 28.4 µM (inactive) | 11.7 µM (inactive) | 10 µM (inactive) | 22.5 µM (inactive) | 15.5 µM (inactive) | 15.8 µM (inactive) | 14 µM (inactive) | > 46.2 µM (inactive) | > 100 µM (inactive) | 18.6 µM (inactive) |  | 18.2 µM (inactive) | 12.6 µM (inactive) | > 100 µM (inactive) | > 100 µM (inactive) | > 100 µM (inactive)
O=C1[C@H]2C(c3ccccc3)=NN(C(=O)c3ccccc3)[C@H]2C(=O)N1c1ccccc1 | > 100 µM (inactive) | > 100 µM (inactive) | > 100 | > 100 µM (inactive) | > 100 µM (inactive) | > 100 µM (inactive) |  | > 100 µM (inactive) | > 100 µM (inactive) | > 100 µM (inactive) | > 100 µM (inactive) |  | > 100 µM (inactive) | > 100 µM (inactive) | > 100 µM (inactive) | > 100 µM (inactive) |  | > 100 µM (inactive) | > 100 µM (inactive)
Cc1ccccc1NC(=O)CC(=O)NNCC(=O)Nc1nnc(-c2ccccc2)s1 | > 100 µM (inactive) | 64.9 µM (inactive) | 58.2 | > 100 µM (inactive) | > 100 µM (inactive) | 48.2 µM (inactive) | > 100 µM (inactive) | 49.7 µM (inactive) | > 100 µM (inactive) | > 100 µM (inactive) | 42.7 µM (inactive) | > 100 µM (inactive) | 42.9 µM (inactive) |  | 35.7 µM (inactive) | 87.7 µM (inactive) | > 100 µM (inactive) |  | 24.7 µM (inactive)
O=C1CSC(C(/N=N/c2ccccc2)=C2Nc3ccccc3N2)=N1 | 66.1 µM (inactive) | 32.4 µM (inactive) | 54.6 | 22.1 µM (inactive) | 24.4 µM (inactive) | 38.6 µM (inactive) | 36.1 µM (inactive) | 31.1 µM (inactive) | 74.5 µM (inactive) | 66.8 µM (inactive) | > 100 µM (inactive) | > 100 µM (inactive) | 23.7 µM (inactive) |  | 10 µM (inactive) | 93.5 µM (inactive) | > 100 µM (inactive) | 18.3 µM (inactive) | 34.4 µM (inactive)
COc1ccc(-c2nc3ccccc3s2)cc1OC | 30.2 µM (inactive) | 45.1 µM (inactive) | 43.7 | 25.8 µM (inactive) | > 100 µM (inactive) | 20.1 µM (inactive) |  |  | 42.4 µM (inactive) | 83.6 µM (inactive) |  |  | 67.9 µM (inactive) |  | > 100 µM (inactive) | > 100 µM (inactive) | > 100 µM (inactive) | 15.5 µM (inactive) | > 100 µM (inactive)
COc1ccccc1/C=C\c1cc(OC)c(OC)c(OC)c1 | 6.89 µM (inactive) | 9.23 µM (inactive) | 4.2 | 4.83 µM (inactive) | 31.6 µM (inactive) | 6.85 µM (inactive) |  | 15.2 µM (inactive) |  | 29.3 µM (inactive) | 43.6 µM (inactive) |  | 5.18 µM (inactive) | 11 µM (inactive) | 4.31 µM (inactive) | 3.85 µM (inactive) | 34 µM (inactive) |  | 10.7 µM (inactive)
Cn1cnc([N+](=O)[O-])c1Sc1ccccn1 | > 100 µM (inactive) | > 100 µM (inactive) |  | > 100 µM (inactive) | > 100 µM (inactive) | > 100 µM (inactive) | > 100 µM (inactive) | > 100 µM (inactive) | > 100 µM (inactive) | > 100 µM (inactive) | > 100 µM (inactive) | > 100 µM (inactive) | > 100 µM (inactive) |  | 38.5 µM (inactive) | > 100 µM (inactive) | > 100 µM (inactive) | > 100 µM (inactive) | > 100 µM (inactive)
